Results taken from patent US20240238232A1, “COMPOSITIONS AND METHODS FOR THE REDUCTION OR TREATMENT OF INSULIN RESISTANCE AND METABOLIC CONDITIONS” (AXCELLA HEALTH INC., priority 2018, published 2024).
Values joined by “and” are separate entries in the source; they are usually repeats but may differ in a detail not shown here. Equal values may be shown once.

Tested on: STAM™ model (NASH)
Experiment: NAFLD activity score (HE staining, Kleiner criteria) in STAM mice, Example 2
Format: in vivo, mouse
Set-up: key to NAFLD Activity Score (NAS), mean / NAFLD Activity Score: raw data: NAS = steatosis (0-3) + inflammation (0-2) + ballooning (0-2); key to NAFLD Activity: Steatosis Score, mean / NAFLD Activity: Steatosis Score: raw data: steatosis grade 0-3 (Kleiner criteria)
Settings: A-1 1500 mg/kg twice daily, OCA 30 mg/kg once daily
Protocol: Amino Acid Composition A-1 and Obeticholic acid (6α-ethyl-chenodeoxycholic acid; “OCA”) were tested for their ability to treat NASH in the STAM™ model (Stelic Institute & Co., Tokyo, Japan; Saito K. et al., 2015 Sci Rep 5:12466). Two additional groups of normal C57BL/6 mice fed standard chow and vehicle treated STAM™ mice were included as controls. All animals receiving treatment or vehicle were treated starting at 6 weeks until 9 weeks of age. Compounds were administered via oral gavage, with a dose volume of 10 ml/kg. Amino Acid Composition A-1 was administered twice daily at a dose of 1500 mg/kg, and OCA was administered once daily at a dose of 30 mg/kg.
STAM™ is a model for non-alcoholic steatohepatitis (NASH) and hepatocellular carcinoma (HCC), developed by SMC Laboratories, Inc. and created by the combination of chemical and dietary interventions using C57BL/6 mice (Saito K. et al., 2015 Sci Rep 5:12466). Mice are treated with a low dose of streptozotocin at birth and fed a high fat diet starting at 4 weeks. Evidence of fatty liver is present by 5 weeks, followed by NASH by 7 weeks and fibrosis by 9 weeks.
NASH was induced in 53 male mice by a single subcutaneous injection of 200 μg streptozotocin (STZ, Sigma-Aldrich, USA) solution 2 days after birth and feeding with high fat diet (HFD, 57 kcal % fat, Cat #HFD32, CLEA Japan, Japan) after 4 weeks of age.
Amino Acid Composition A-1, OCA and Vehicle (described below) were administered by oral route in a volume of 10 mL/kg. Amino Acid Composition A-1 was solubilized in deionized water to 150 mg/ml (10 X). OCA (Advanced ChemBlocks Inc.) was resuspended in 0.5% methycellulose in water to 3 mg/ml (10 X). Amino Acid Composition A-1 was administered at a dose of 1500 mg/kg twice daily (9 am and 7 pm). OCA was administered at a dose of 30 mg/kg once daily (9 am).
Liver samples from mice in Group 2 (Vehicle), 3 (Amino Acid Composition A-1) and 4 (OCA) were used for the following assays. For HE staining, sections were cut from paraffin blocks of liver tissue prefixed in Bouin's solution and stained with Lillie-Mayer's Hematoxylin (Muto Pure Chemicals Co., Ltd., Japan) and eosin solution (Wako Pure Chemical Industries). NAFLD Activity score (NAS) was calculated according to the criteria of Kleiner (Kleiner D. E. et al., Hepatology, 2005; 41:1313).
The non-alcoholic fatty liver disease (NAFLD) activity score was assessed via histological analysis and grading of H&E stained liver sections from each animal. This score is the sum of three individual scores that grade the degree of steatosis (0-3), inflammation (0-2), and hepatocyte ballooning (0-2). All tissues were graded using the scoring criteria of Kleiner et al. (Kleiner et al. Hepatology. 2005; 41(6): 1313-21). Data are mean±standard deviation (stdev). […] Both Amino Acid Composition A-1 and OCA were statistically different from vehicle for NAFLD Activity Score when compared using Dunnett's multiple comparisons test (Amino Acid Composition A-1 p=0.0001, OCA p=0.0001).

[1] = STAM mice, oral, 6 to 9 weeks of age

SMILES: CC[C@H]1[C@@H](O)[C@@H]2[C@H](CC[C@]3(C)[C@@H]([C@H](C)CCC(=O)O)CC[C@@H]23)[C@@]2(C)CC[C@@H](O)C[C@@H]12 [OCA, 6α-ethyl-chenodeoxycholic acid]
- NAFLD Activity Score (NAS), mean [1]: 2.9+/−0.74 and 2.9
- NAFLD Activity: Ballooning Score, mean [1]: 0.3+−0.48 and 0.3
- NAFLD Activity: Inflammation Score, mean [1]: 1.8
- NAFLD Activity: Steatosis Score, mean [1]: 0.8
- NAFLD Activity Score: raw data (individual STAM mice): 2 (3×) and 4 (2×) and 3 (5×)
- NAFLD Activity: Ballooning Score: raw data (individual STAM mice): 0 (7×) and 1 (3×)
- NAFLD Activity: Inflammation Score: raw data (individual STAM mice): 1 (4×) and 2 (4×) and 3 (2×)
- NAFLD Activity: Steatosis Score: raw data (individual STAM mice): 1 (8×) and 0 (2×)
